Here are results for 15 compounds from patent publication US20260234150A1, “COMPOUND FOR INHIBITING NLRP3, PREPARATION METHOD, AND USE” (DOVETREE MEDICINES UNUS, INC., priority 2023, published 2026).

The target of series [1] is T1, His6-Flag-TEV-NLRP3 (134-1036) (Homo sapiens, UniProt Q96P20).
T1 construct: fused on or other part: N-terminal His6 tag, Flag tag and TEV cleavage site
Briefly: NLRP3 fluorescence polarization (FP) binding assay, competition with probe NP3-301. The settings on record: competition with NP3-301 for binding to NLRP3 (134-1036), 30 nM protein. The protocol:
This experiment uses fluorescence polarization technology to detect and evaluate the binding assay.
The fluorescent probe used in this assay is the compound NP3-301 in the Journal of Molecular Biology (2021) 433, 167309, which was synthesized with reference to this literature.
His6-Flag-TEV-NLRP3 (134-1036) protein (SEQ NO. 1) was purchased from Kaihuiruizhi Biotech (Shanghai) Co., Ltd. (ChemPartner), and was customed for expression.
Prepare 1× assay buffer: 50 mM Hepes, pH 7.4, 150 mM NaCl, 2.5 mM MgCl2, 0.005% Tween-20, 1 mM TCEP, 100 μM ATP.
First, 2.5 μL of 4× compound solution was added to a black shallow 384-well plate (Greiner, 784076), the shallow well plate was sealed, and centrifuged at 1000 rpm for 1 min; then 2× NLPR3 protein solution (final concentration of 30 nM) was added, the shallow well plate was sealed, centrifuged at 1000 rpm for 1 min, and incubated at room temperature for 60 min. Finally, 2.5 μL of 4× NP3-301 (final concentration of 0.5 nM) was added, the shallow well plate was sealed, centrifuged at 1000 rpm for 1 min, and incubated at room temperature for 30 min. Envision was used to read the fluorescence polarization values of λex=485+20 nm and kem=535+25 nm. GraphPad Prism 9.5.0 was used to analyze the data, and the IC50 value of the competition between the compound and NP3-301 for binding to His6-Flag-TEV-NLRP3 (134-1036) was fitted by four-parameter logistic. The compounds of the present disclosure have good NLRP3 binding activity, and the test results of some representative compounds are shown in Table 1.

Series [2] relates to IL-1β secretion of THP-1 cells. Briefly: Effect of NLRP3 inhibitor on IL-1β secretion of THP-1 cells (AlphaLISA). Type of series: cell-based. Particulars: Homo sapiens; PMA, LPS and Nigericin stimulated THP-1 cells, IL-1β in supernatant; read-out: IC50 (nM), THP-1 cells to detect NLRP3 inhibitors. The protocol:
This experiment used the PerkinElmer AlphaLISA_human_IL1β kit (AL220 C/F). The detection buffer was RPMI-1640+10FBS. AlphaLISA Immunoassay Buffer, AlphaLISA Anti-IL1β Acceptor beads, Streptavidin (SA)-coated Donor beads, and Biotinylated Antibody Anti-IL1β were all included in the kit.
The density of THP1 cells was adjusted to 4×10^5 cells/mL, PMA (final concentration 50 nM) was added, inoculated into 96-well flat-bottom plates at 200 μL/well, and stimulated overnight at 37° C., 5% CO2 (try to <16h). The next day, the supernatant was discarded, and the flat washed twice with DPBS ([…]/time). Then LPS solution (final concentration of 100 ng/ml) was added at 198 μL/well, incubated at 37° C., 5% CO2 for 3h. 1 μL of the corresponding concentration of compounds was added to each well according to the experimental MAP, incubated at 37° C., 5% CO2 for 1 h. 1 μL Nigericin (final concentration of […]) was added to each well, incubated overnight at 5% CO2 (>18h). On the third day, 5 μL of supernatant was taken, diluted 20 times, and the content of IL-Iβ in the supernatant was detected by Human Interleukin 1 beta (IL1β) Kit. Envision was used to read the AlphaLISA test value of Ex=680/[…]. GraphPad Prism 9.5.0 was used to analyze the data, and the IC50 value of the compound for IL-Iβ antagonism was fitted by four-parameter Logistic.
On the technique in general: Bead proximity is the source of the signal in Alpha formats.

A further series concerns the target T2, hERG ion channel (Homo sapiens, UniProt Q12809).
T2 construct: host or cells: HEK293
Briefly: hERG ion channel inhibition, manual patch clamp in HEK293 cells. The settings on record: HEK293 cells stably expressing hERG, read-out: hERG(IC50, manupatch). Format: cell-based. The protocol: This experiment used manual patch clamp electrophysiology to detect the inhibitory effect of compounds on hERG ion channels, and evaluated cardiac safety based on the single concentration inhibition rate or IC50 size of the compounds.
The cells used in this experiment are HEK293 cell lines transfected with hERG cDNA and stably expressing hERG channels (#60187, provided by BPS, P3-P23 generations are used for experimental research). Cells were cultured in a medium containing the following components: MEM medium, 10% (v/v) inactivated fetal bovine serum, 1 mM sodium pyruvate, […] geneticin, 0.1 mM non-essential amino acids, and 100 U penicillin-streptomycin. HEK293 hERG cells were grown in culture flasks containing the above culture medium and cultured in an incubator at 37° C. and 5% CO2. […]
The electrophysiological experiments were performed by a manual patch clamp system (HEKAEPC-10 signal amplifier and digital conversion system, purchased from HEKA Electronics, Germany) to record the whole-cell current. […] After the hERG current recorded in the above steps reaches stability under continuous perfusion of extracellular fluid in the recording tank, different concentrations of the test compound can be perfused until the inhibitory effect of the drug on the hERG current reaches a stable state. […]

Series [3] deals with iodoacetic acid (MIA)-induced SD rat knee osteoarthritis model. Briefly: Iodoacetic acid (MIA)-induced SD rat knee osteoarthritis model. Format: in vivo, SD rats. The settings on record: 30 mg/kg orally once a day from Day 7 to Day 42. The procedure:
Purpose: Evaluate the efficacy of MCC950 (Positive reference compound) and compound 111 of the present disclosure on iodoacetic acid (MIA)-induced SD rat knee osteoarthritis model.
Experimental materials: Experimental male SD rats, 4 weeks old.
Model induction began after the experimental animals were adapted to the animal environment for 7 days. Day 0, the rats were anesthetized, the hair around the left knee joint was removed, and the skin was disinfected. The left leg was flexed 90° to expose the patellar platform. The depression in the middle of the platform was touched by hand to find the femoral condyle, patella and ligament. The syringe needle was inserted from the bottom of the patella on both sides of the patellar ligament to the direction of the femoral condyle. When a clear sense of empty space was felt, 50 μL of iodoacetic acid solution was injected. Day 7 Grouping was performed according to the width of the knee joint on the induced side. The groups were: normal control group (healthy control without modeling, 5% DMSO+10% Solutol+85% Saline), model blank control group (5% DMSO+10% Solutol+85% Saline), MCC950 30 mg/kg, and compound 111 of the present disclosure 30 mg/kg. Starting from Day 7, the normal control group and the model blank control group were given the solvent (5% DMSO+10% Solutol+85% Saline) orally once a day, and the other groups were given the corresponding compounds orally once a day until the end of the administration on Day 42. The knee joint width and body weight of the rats were measured once on Day 7, 14, 21, 28, 35, and 42.

Where only a bound is given, the exact number is not on record here.

T1 sequence (Q96P20 134-1036 limits assumed): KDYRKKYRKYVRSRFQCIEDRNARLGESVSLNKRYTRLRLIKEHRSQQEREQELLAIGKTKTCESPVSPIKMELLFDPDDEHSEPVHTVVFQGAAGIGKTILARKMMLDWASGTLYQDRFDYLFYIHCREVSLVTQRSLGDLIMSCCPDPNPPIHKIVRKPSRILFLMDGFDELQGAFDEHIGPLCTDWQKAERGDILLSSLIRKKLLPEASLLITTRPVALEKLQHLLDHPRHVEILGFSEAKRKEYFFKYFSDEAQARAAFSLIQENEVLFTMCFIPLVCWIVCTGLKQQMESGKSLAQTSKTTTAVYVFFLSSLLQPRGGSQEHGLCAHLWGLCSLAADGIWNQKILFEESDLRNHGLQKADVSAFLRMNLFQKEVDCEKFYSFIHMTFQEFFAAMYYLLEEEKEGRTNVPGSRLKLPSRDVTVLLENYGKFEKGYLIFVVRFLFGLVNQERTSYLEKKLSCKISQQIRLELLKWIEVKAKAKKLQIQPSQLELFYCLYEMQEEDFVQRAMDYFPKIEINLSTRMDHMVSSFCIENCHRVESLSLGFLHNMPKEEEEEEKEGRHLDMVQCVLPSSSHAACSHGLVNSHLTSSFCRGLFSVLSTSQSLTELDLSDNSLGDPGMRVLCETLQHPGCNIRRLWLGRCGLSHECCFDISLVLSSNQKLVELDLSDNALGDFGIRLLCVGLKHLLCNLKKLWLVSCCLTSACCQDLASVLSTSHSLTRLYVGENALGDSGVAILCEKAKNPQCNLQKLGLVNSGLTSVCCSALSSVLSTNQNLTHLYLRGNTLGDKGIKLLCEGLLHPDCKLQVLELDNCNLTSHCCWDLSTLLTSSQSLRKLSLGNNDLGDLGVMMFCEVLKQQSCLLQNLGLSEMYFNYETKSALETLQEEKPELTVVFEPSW
T2 sequence (Q12809 whole entry): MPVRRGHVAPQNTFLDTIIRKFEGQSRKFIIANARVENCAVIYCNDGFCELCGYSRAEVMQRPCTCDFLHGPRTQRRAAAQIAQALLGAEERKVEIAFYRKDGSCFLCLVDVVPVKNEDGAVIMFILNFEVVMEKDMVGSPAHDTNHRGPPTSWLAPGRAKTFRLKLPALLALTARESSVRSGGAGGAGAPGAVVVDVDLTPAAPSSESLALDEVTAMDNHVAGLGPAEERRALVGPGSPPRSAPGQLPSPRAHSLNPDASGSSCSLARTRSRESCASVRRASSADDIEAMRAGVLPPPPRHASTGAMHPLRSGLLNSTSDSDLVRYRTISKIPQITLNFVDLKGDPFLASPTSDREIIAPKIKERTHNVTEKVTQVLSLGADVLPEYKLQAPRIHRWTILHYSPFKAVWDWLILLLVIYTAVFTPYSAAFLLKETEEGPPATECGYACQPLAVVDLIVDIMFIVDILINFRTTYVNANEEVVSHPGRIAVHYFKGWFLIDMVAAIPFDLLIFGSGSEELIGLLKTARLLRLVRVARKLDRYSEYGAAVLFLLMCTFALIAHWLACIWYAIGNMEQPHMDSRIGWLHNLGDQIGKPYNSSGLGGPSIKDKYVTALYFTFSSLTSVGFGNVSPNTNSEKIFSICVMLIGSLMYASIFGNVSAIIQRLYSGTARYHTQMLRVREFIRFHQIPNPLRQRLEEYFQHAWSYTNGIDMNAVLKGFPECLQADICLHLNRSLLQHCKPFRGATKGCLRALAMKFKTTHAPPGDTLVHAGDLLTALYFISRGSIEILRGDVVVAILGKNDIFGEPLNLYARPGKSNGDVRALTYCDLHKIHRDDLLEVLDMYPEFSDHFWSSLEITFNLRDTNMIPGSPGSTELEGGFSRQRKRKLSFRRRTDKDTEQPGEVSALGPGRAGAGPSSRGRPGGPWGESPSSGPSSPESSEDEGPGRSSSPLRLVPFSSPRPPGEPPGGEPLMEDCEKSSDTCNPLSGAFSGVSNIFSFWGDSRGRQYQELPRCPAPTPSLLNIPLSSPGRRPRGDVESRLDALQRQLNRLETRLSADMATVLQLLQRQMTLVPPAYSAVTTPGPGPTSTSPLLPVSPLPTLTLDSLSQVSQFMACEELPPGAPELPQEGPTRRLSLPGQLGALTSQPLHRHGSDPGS

Consider `Cc1cc(C(F)(F)F)cc(O)c1-c1ccc2oc(N3CCS(=O)(=O)CC3)nc2n1` [Compound 384], for which the figures for the IC50 (in series [1]; in series [2]; at hERG ion channel) were no more than 0.1 µM, less than 50 nM and greater than 30 µM, respectively.

With `CC(C)(O)c1coc(S(=O)(=O)NC(=O)Nc2c3c(cc4c2CCC4)CCC3)c1` [MCC950], the “body weight of the rats” value in series [3] was “without affecting the body weight of the rats”. Moreover, in series [3] (compared with model blank control group, 21 days to 42 days after modeling), the “widening of the knee joints (knee joint width)” value is on record as “could significantly inhibit the widening of the knee joints”.

On to `Cc1cc(C(F)(F)F)cc(O)c1-c1ccc2oc(N[C@@H]3CCCN(C(C)C)C3)nc2n1` [Compound 400], for which the values for the IC50 in series [1] and in series [2] were no more than 0.1 µM and less than 50 nM, respectively.

Take `Cc1cc(C(F)(F)F)cc(O)c1-c1ccn2nc(N[C@@H]3CCCN(C)C3)nc2n1` [Compound 444]: the IC50 – broadly, the concentration that gives 50% inhibition – in series [1] was no more than 0.1 µM; in series [2], less than 50 nM.

Take `CCN1CCC[C@@H](N2CC(=O)Nc3cc(-c4c(C)cc(C(F)(F)F)cc4O)nnc32)C1` [Compound 12-a]: the figures for the IC50 in series [1] and in series [2] were no more than 0.1 µM and less than 50 nM, respectively.

As for `CCN1CCC[C@@H](n2ccc3cc(-c4c(C)cc(C(F)(F)F)cc4O)nnc32)C1` [Compound 11-a], the results for the IC50 in series [1] and in series [2] were no more than 0.1 µM and less than 50 nM, respectively.

Consider `CCN1CCCC(n2ccc3cc(-c4c(C)cc(C(F)(F)F)cc4O)nnc32)C1` (stereo not shown) [Compound 11], for which the values for the IC50 in series [1] and in series [2] were no more than 0.1 µM and less than 50 nM, respectively.

As for `CCN1CCC[C@H](Nc2nc3nc(-c4c(C)cc(C(F)(F)F)cc4O)cc(C)n3n2)C1` [Compound 462], the IC50 in series [1] is no more than 0.1 µM; in series [2], less than 50 nM.

For `Cc1cc(C(F)(F)F)cc(O)c1-c1cc(C)n2nc(N[C@@H]3CCCN(C)C3)nc2n1` [Compound 443], the IC50 is no more than 0.1 µM in series [1] and less than 50 nM in series [2].

For `Cc1cc(C(F)(F)F)cc(O)c1-c1cc(C)n2nc(N[C@H]3CCCN(CCO)C3)nc2n1` [Compound 460], the IC50 is no more than 0.1 µM in series [1] and less than 50 nM in series [2].

On to `Oc1cc(Cl)cc(O)c1-c1ccc2oc(N3CCOCC3)nc2n1` [Compound 376], for which the 50% inhibitory concentration (IC50) in series [1] is no more than 0.1 µM; in series [2], less than 50 nM.

In the case of `CC(=O)N1CCOC[C@H]1CNc1nc2nc(-c3c(C)cc(C(F)(F)F)cc3O)cc(C)c2o1` [Compound 451], the results for the IC50 in series [1] and in series [2] were no more than 0.1 µM and 50 to 100 nM, respectively.

`Cc1cc(C(F)(F)F)cc(O)c1-c1cc(C)c2nc(N[C@@H]3CCCN(C)C3)nn2n1` [Compound 446]: the IC50 in series [1] was no more than 0.1 µM; in series [2] it was less than 50 nM.

Take `CCS(=O)(=O)N1CCN(c2nc3nc(-c4c(C)cc(C(F)(F)F)cc4O)ccc3o2)C[C@@H]1C` [Compound 394]: the figures for the half-maximal inhibitory concentration (IC50) in series [1] and in series [2] were no more than 0.1 µM and 50 to 100 nM, respectively.

Take `CC(=O)N1CCOC[C@H]1CNc1nc2nc(-c3c(C)cc(Cl)cc3O)ccc2o1` [Compound 253]: the results for the IC50 in series [1] and in series [2] were no more than 0.1 µM and less than 50 nM, respectively.
